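1) Cells in 96-well plates. 2) Compound, 48 h, 5 concentrations. 3) Linear interpolation between surrounding doses. 4) Unreached endpoint = highest concentration. TGI: concentration producing complete growth inhibition.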
Key:
Assay in all cases: inhibition of tumour cell growth, NCI panel, 48 h
MALME-3M melanoma = tested on: MALME-3M melanoma
IGROV1 ovarian = tested on: IGROV1 ovarian
SN12C renal = tested on: SN12C renal
OVCAR-5 ovarian = tested on: OVCAR-5 ovarian
UACC-257 melanoma = tested on: UACC-257 melanoma
EKVX NSCLC = tested on: EKVX NSCLC
SF-539 CNS = tested on: SF-539 CNS
NCI-H226 lung = tested on: NCI-H226 lung
HL-60(TB) leukemia = tested on: HL-60(TB) leukemia
K-562 leukemia = tested on: K-562 leukemia
U251 CNS = tested on: U251 CNS
T-47D breast = tested on: T-47D breast
MOLT-4 leukemia = tested on: MOLT-4 leukemia
SNB-19 CNS = tested on: SNB-19 CNS
SK-OV-3 ovarian = tested on: SK-OV-3 ovarian
ACHN renal = tested on: ACHN renal
UACC-62 melanoma = tested on: UACC-62 melanoma
NCI-H23 lung = tested on: NCI-H23 lung
HCT-116 colon = tested on: HCT-116 colon
BT-549 breast = tested on: BT-549 breast
A498 renal = tested on: A498 renal
SF-295 CNS = tested on: SF-295 CNS
NCI-H522 lung = tested on: NCI-H522 lung
DU-145 prostate = tested on: DU-145 prostate
OVCAR-4 ovarian = tested on: OVCAR-4 ovarian
RXF 393 renal = tested on: RXF 393 renal
NCI/ADR-RES ovarian = tested on: NCI/ADR-RES ovarian
HOP-62 NSCLC = tested on: HOP-62 NSCLC
M14 melanoma = tested on: M14 melanoma
HCT-15 colon = tested on: HCT-15 colon
786-0 renal = tested on: 786-0 renal
CAKI-1 renal = tested on: CAKI-1 renal
LOX IMVI melanoma = tested on: LOX IMVI melanoma
HT29 colon = tested on: HT29 colon
MDA-MB-435 = tested on: MDA-MB-435
COLO 205 colon = tested on: COLO 205 colon
SK-MEL-5 melanoma = tested on: SK-MEL-5 melanoma
SR leukemia = tested on: SR leukemia
MDA-MB-231 breast = tested on: MDA-MB-231 breast
PC-3 prostate = tested on: PC-3 prostate
SNB-75 CNS = tested on: SNB-75 CNS
MDA-N = tested on: MDA-N
SF-268 CNS = tested on: SF-268 CNS
OVCAR-8 ovarian = tested on: OVCAR-8 ovarian
UO-31 renal = tested on: UO-31 renal
SK-MEL-2 melanoma = tested on: SK-MEL-2 melanoma
SK-MEL-28 melanoma = tested on: SK-MEL-28 melanoma
MCF7 breast = tested on: MCF7 breast
NCI-H460 lung = tested on: NCI-H460 lung
A549 NSCLC = tested on: A549 NSCLC
KM12 colon = tested on: KM12 colon
SW-620 colon = tested on: SW-620 colon
RPMI-8226 leukemia = tested on: RPMI-8226 leukemia
HS 578T breast = tested on: HS 578T breast
TK-10 renal = tested on: TK-10 renal
HOP-92 NSCLC = tested on: HOP-92 NSCLC
CCRF-CEM leukemia = tested on: CCRF-CEM leukemia
OVCAR-3 ovarian = tested on: OVCAR-3 ovarian
HCC-2998 colon = tested on: HCC-2998 colon

O=C(O)COc1c(Cl)cc(Cl)c2cccnc12
TGI (MALME-3M melanoma): > 100 µM | TGI (IGROV1 ovarian): > 100 µM | TGI (SN12C renal): > 100 µM | TGI (OVCAR-5 ovarian): > 100 µM | TGI (UACC-257 melanoma): > 100 µM | TGI (EKVX NSCLC): > 100 µM | TGI (SF-539 CNS): > 100 µM | TGI (NCI-H226 lung): > 100 µM | TGI (HL-60(TB) leukemia): > 100 µM | TGI (K-562 leukemia): > 100 µM | TGI (U251 CNS): > 100 µM | TGI (T-47D breast): > 100 µM | TGI (MOLT-4 leukemia): > 100 µM | TGI (SNB-19 CNS): > 100 µM | TGI (SK-OV-3 ovarian): > 100 µM | TGI (ACHN renal): > 100 µM | TGI (UACC-62 melanoma): > 100 µM | TGI (NCI-H23 lung): > 100 µM | TGI (HCT-116 colon): > 100 µM | TGI (BT-549 breast): > 100 µM | TGI (A498 renal): > 100 µM | TGI (SF-295 CNS): > 100 µM | TGI (NCI-H522 lung): > 100 µM | TGI (DU-145 prostate): > 100 µM | TGI (OVCAR-4 ovarian): > 100 µM | TGI (RXF 393 renal): > 100 µM | TGI (NCI/ADR-RES ovarian): > 100 µM | TGI (HOP-62 NSCLC): > 100 µM | TGI (M14 melanoma): > 100 µM | TGI (HCT-15 colon): > 100 µM | TGI (786-0 renal): > 100 µM | TGI (CAKI-1 renal): > 100 µM | TGI (LOX IMVI melanoma): > 100 µM | TGI (HT29 colon): > 100 µM | TGI (MDA-MB-435): > 100 µM | TGI (COLO 205 colon): > 100 µM | TGI (SK-MEL-5 melanoma): > 100 µM | TGI (SR leukemia): > 100 µM | TGI (MDA-MB-231 breast): > 100 µM | TGI (PC-3 prostate): > 100 µM | TGI (SNB-75 CNS): > 100 µM | TGI (MDA-N): > 100 µM | TGI (SF-268 CNS): > 100 µM | TGI (OVCAR-8 ovarian): > 100 µM | TGI (UO-31 renal): > 100 µM | TGI (SK-MEL-2 melanoma): > 100 µM | TGI (SK-MEL-28 melanoma): > 100 µM | TGI (MCF7 breast): > 100 µM | TGI (NCI-H460 lung): > 100 µM | TGI (A549 NSCLC): > 100 µM | TGI (KM12 colon): > 100 µM | TGI (SW-620 colon): > 100 µM | TGI (RPMI-8226 leukemia): > 100 µM | TGI (HS 578T breast): > 100 µM | TGI (TK-10 renal): > 100 µM | TGI (HOP-92 NSCLC): > 100 µM | TGI (CCRF-CEM leukemia): > 100 µM | TGI (OVCAR-3 ovarian): > 100 µM

CC(C)(C)OC(=O)NCCC1CN(C(=O)c2ccccc2)c2ccccc21 (stereo unspecified)
TGI (MALME-3M melanoma): 80.9 µM | TGI (IGROV1 ovarian): > 100 µM | TGI (OVCAR-5 ovarian): > 100 µM | TGI (UACC-257 melanoma): 75.2 µM | TGI (EKVX NSCLC): > 100 µM | TGI (K-562 leukemia): > 100 µM | TGI (U251 CNS): > 100 µM | TGI (T-47D breast): 95.5 µM | TGI (MOLT-4 leukemia): 74.4 µM | TGI (SNB-19 CNS): > 100 µM | TGI (SK-OV-3 ovarian): > 100 µM | TGI (ACHN renal): > 100 µM | TGI (UACC-62 melanoma): 42.3 µM | TGI (NCI-H23 lung): 88.8 µM | TGI (HCT-116 colon): 43 µM | TGI (BT-549 breast): 66.5 µM | TGI (A498 renal): > 100 µM | TGI (SF-295 CNS): > 100 µM | TGI (NCI-H522 lung): 64.2 µM | TGI (DU-145 prostate): > 100 µM | TGI (HCC-2998 colon): > 100 µM | TGI (OVCAR-4 ovarian): > 100 µM | TGI (RXF 393 renal): 99 µM | TGI (NCI/ADR-RES ovarian): 57.5 µM | TGI (HOP-62 NSCLC): 83.2 µM | TGI (M14 melanoma): 33.6 µM | TGI (HCT-15 colon): > 100 µM | TGI (786-0 renal): > 100 µM | TGI (CAKI-1 renal): > 100 µM | TGI (HT29 colon): 63.7 µM | TGI (MDA-MB-435): 84.7 µM | TGI (COLO 205 colon): 40 µM | TGI (SK-MEL-5 melanoma): 32 µM | TGI (SR leukemia): > 100 µM | TGI (MDA-MB-231 breast): > 100 µM | TGI (PC-3 prostate): > 100 µM | TGI (SNB-75 CNS): 75.2 µM | TGI (MDA-N): 48.4 µM | TGI (SF-268 CNS): > 100 µM | TGI (OVCAR-8 ovarian): 67.8 µM | TGI (UO-31 renal): 76.1 µM | TGI (SK-MEL-2 melanoma): 91.2 µM | TGI (SK-MEL-28 melanoma): 91.2 µM | TGI (MCF7 breast): 85.5 µM | TGI (NCI-H460 lung): 56.3 µM | TGI (A549 NSCLC): > 100 µM | TGI (KM12 colon): > 100 µM | TGI (SW-620 colon): > 100 µM | TGI (RPMI-8226 leukemia): 54.4 µM | TGI (HS 578T breast): > 100 µM | TGI (TK-10 renal): > 100 µM | TGI (HOP-92 NSCLC): 94.6 µM | TGI (OVCAR-3 ovarian): 65.3 µM
